According to ChEMBL document CHEMBL1921706, “Discovery of a novel series of melanin-concentrating hormone receptor 1 antagonists for the treatment of obesity” (Bioorg Med Chem Lett, 2011):
Active and inactive are the calls of the source. The rule behind the calls is not given here.

Key:
[1] = biological target: T1, Melanin-concentrating hormone receptor 1 (Homo sapiens, UniProt Q99705); test: Antagonist activity at human MCHR1 expressed in Jurkat cells co-expressing apoaequorin assessed as inhibition of MCH-induced calcium mobilization by aequorin bioluminescence assay; assay type: functional, cell-based
[2] = biological target: T1, Melanin-concentrating hormone receptor 1; test: Displacement of [125I]-MCH from MCHR1 after 2 hrs by beta scintillation counting
[3] = tested on: Rattus norvegicus; test: Clearance in rat at 0.5 mg/kg, iv; assay type: ADME, organism-based; design: dose 0.5 mg/kg, route intravenous; settings: in vivo
[4] = Clearance in Beagle dog at 0.5 mg/kg, iv; assay type: ADME, organism-based, Canis lupus familiaris; design: dose 0.5 mg/kg, route intravenous; settings: in vivo
[5] = Clearance in rhesus monkey at 0.5 mg/kg, iv; assay type: ADME, organism-based, Macaca mulatta; design: dose 0.5 mg/kg, route intravenous; settings: in vivo
[6] = Volume of distribution at steady state in rat at 0.5 mg/kg, iv; assay type: ADME, organism-based; design: dose 0.5 mg/kg, route intravenous; settings: in vivo, read-out: Vdss
[7] = Volume of distribution at steady state in Beagle dog at 0.5 mg/kg, iv; assay type: ADME, organism-based, Canis lupus familiaris; design: dose 0.5 mg/kg, route intravenous; settings: in vivo, read-out: Vdss
[8] = Volume of distribution at steady state in rhesus monkey at 0.5 mg/kg, iv; assay type: ADME, organism-based, Macaca mulatta; design: dose 0.5 mg/kg, route intravenous; settings: in vivo, read-out: Vdss
[9] = Mean residence time in rat at 3 mg/kg, po; assay type: ADME, organism-based; design: dose 3 mg/kg, route oral; settings: in vivo
[10] = Mean residence time in Beagle dog at 3 mg/kg, po; assay type: ADME, organism-based, Canis lupus familiaris; design: dose 3 mg/kg, route oral; settings: in vivo
[11] = Mean residence time in rhesus monkey at 3 mg/kg, po; assay type: ADME, organism-based, Macaca mulatta; design: dose 3 mg/kg, route oral; settings: in vivo
[12] = tested on: Rattus norvegicus; test: AUC in rat at 3 mg/kg, po; assay type: ADME, organism-based, Plasma; design: dose 3 mg/kg, route oral; settings: in vivo
[13] = AUC in Beagle dog at 3 mg/kg, po; assay type: ADME, organism-based, Canis lupus familiaris; design: dose 3 mg/kg, route oral; settings: plasma
[14] = AUC in rhesus monkey at 3 mg/kg, po; assay type: ADME, organism-based, Macaca mulatta; design: dose 3 mg/kg, route oral; settings: plasma
[15] = tested on: Rattus norvegicus; test: Oral bioavailability in rat at 3 mg/kg; assay type: ADME, organism-based; settings: in vivo
[16] = Oral bioavailability in Beagle dog at 3 mg/kg; assay type: ADME, organism-based, Canis lupus familiaris; settings: in vivo
[17] = Oral bioavailability in rhesus monkey at 3 mg/kg; assay type: ADME, organism-based, Macaca mulatta; settings: in vivo
[18] = Clearance in rat hepatocytes assessed per 10^6 cells; assay type: ADME, cell-based, Liver, Hepatocyte
[19] = Clearance in Beagle dog hepatocytes assessed per 10^6 cells; assay type: ADME, cell-based, Canis lupus familiaris, Liver, Hepatocyte
[20] = Clearance in rhesus monkey hepatocytes assessed per 10^6 cells; assay type: ADME, cell-based, Macaca mulatta, Liver, Hepatocyte
[21] = Clearance in human hepatocytes assessed per 10^6 cells; assay type: ADME, cell-based, Liver, Hepatocyte
[22] = biological target: Melanin-concentrating hormone receptor 1 (Rattus norvegicus, UniProt P97639); test: Antagonist activity at rat MCHR1 expressed in HEK293 cells by aequorin bioluminescence assay; assay type: functional, cell-based
[23] = tested on: Rattus norvegicus; test: Antiobesity activity in ICV cannulated rat model assessed as reduction in MCH-induced food intake at 0.2 mg/kg, po administered 3 hrs before MCH challenge measured after 4 hrs post MCH challenge; assay type: functional; design: scale not given: the % may be the effect or the level left
[24] = tested on: Rattus norvegicus; test: Antiobesity activity in ICV cannulated rat model assessed as reduction in MCH-induced food intake at 1 mg/kg, po administered 3 hrs before MCH challenge measured after 4 hrs post MCH challenge; assay type: functional, organism-based; design: dose 1 mg/kg
[25] = tested on: Rattus norvegicus; test: Antiobesity activity in ICV cannulated rat model assessed as reduction in MCH-induced food intake at 5 mg/kg, po administered 3 hrs before MCH challenge measured after 4 hrs post MCH challenge; assay type: functional, organism-based; design: dose 5 mg/kg
[26] = tested on: Rattus norvegicus; test: Toxicity in ICV cannulated rat model at 0.2 to 5 mg/kg, po administered 3 hrs before MCH challenge measured after 4 hrs post MCH challenge; assay type: organism-based; design: dose 0.2-5 mg/kg, route oral; settings: in vivo
[27] = biological target: Melanin-concentrating hormone receptor 2 (Homo sapiens) (UniProt Q969V1); test: Binding affinity to human MCHR2
[28] = biological target: Melanin-concentrating hormone receptor 1 (Macaca fascicularis, UniProt B6F061); test: Antagonist activity at cynomolgus monkey MCHR1; assay type: functional
[29] = tested on: Cynomolgus monkey; test: Antiobesity activity in cynomolgus monkey assessed as reduction of food intake at 10 mg/kg, po measured up to 8 days; assay type: functional, organism-based; design: dose 10 mg/kg; settings: Macaca fascicularis
[30] = tested on: Rattus norvegicus; test: Toxicity in ICV cannulated rat model assessed as behavioural toxicity at 0.2 to 5 mg/kg, po administered 3 hrs before MCH challenge measured after 4 hrs post MCH challenge; assay type: organism-based; design: dose 0.2-5 mg/kg, route oral; settings: in vivo
[31] = tested on: Cynomolgus monkey; test: Toxicity in cynomolgus monkey assessed as signs of sedation at 10 mg/kg, po; assay type: organism-based, Macaca fascicularis; design: dose 10 mg/kg, route oral; settings: in vivo
[32] = tested on: Cynomolgus monkey; test: Toxicity in cynomolgus monkey at 10 mg/kg, po; assay type: organism-based, Macaca fascicularis; design: dose 10 mg/kg, route oral; settings: in vivo

T1 sequence (Q99705 whole entry): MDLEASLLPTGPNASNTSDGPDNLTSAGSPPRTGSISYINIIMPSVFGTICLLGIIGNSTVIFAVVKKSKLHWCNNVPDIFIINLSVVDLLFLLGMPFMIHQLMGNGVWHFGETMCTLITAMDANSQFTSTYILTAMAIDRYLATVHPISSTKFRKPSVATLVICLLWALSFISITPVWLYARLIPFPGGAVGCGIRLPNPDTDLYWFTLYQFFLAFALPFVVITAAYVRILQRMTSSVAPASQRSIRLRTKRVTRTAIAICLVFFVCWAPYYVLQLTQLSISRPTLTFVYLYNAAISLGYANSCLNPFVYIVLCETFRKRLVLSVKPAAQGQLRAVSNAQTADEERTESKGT
Chain of Melanin-concentrating hormone receptor 1 (Macaca fascicularis, UniProt B6F061) (B6F061 whole entry): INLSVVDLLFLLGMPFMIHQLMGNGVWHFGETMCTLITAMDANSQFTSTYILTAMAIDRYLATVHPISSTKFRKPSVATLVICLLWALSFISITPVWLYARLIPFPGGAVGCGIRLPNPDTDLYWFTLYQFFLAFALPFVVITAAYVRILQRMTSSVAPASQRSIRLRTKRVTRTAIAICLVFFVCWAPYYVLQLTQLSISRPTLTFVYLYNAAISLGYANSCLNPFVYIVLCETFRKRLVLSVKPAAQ
Chain of Melanin-concentrating hormone receptor 1 (Rattus norvegicus, UniProt P97639) (P97639 whole entry): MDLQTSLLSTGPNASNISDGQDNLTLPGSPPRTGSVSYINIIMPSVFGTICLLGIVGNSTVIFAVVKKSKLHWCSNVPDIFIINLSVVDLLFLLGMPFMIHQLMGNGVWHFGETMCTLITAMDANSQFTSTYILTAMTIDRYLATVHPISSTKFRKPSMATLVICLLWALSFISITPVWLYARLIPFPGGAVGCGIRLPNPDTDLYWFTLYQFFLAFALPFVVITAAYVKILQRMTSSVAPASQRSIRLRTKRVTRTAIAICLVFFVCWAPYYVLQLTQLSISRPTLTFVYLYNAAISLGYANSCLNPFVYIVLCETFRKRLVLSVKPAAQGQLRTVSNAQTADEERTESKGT
Chain of Melanin-concentrating hormone receptor 2 (Homo sapiens) (Q969V1 whole entry): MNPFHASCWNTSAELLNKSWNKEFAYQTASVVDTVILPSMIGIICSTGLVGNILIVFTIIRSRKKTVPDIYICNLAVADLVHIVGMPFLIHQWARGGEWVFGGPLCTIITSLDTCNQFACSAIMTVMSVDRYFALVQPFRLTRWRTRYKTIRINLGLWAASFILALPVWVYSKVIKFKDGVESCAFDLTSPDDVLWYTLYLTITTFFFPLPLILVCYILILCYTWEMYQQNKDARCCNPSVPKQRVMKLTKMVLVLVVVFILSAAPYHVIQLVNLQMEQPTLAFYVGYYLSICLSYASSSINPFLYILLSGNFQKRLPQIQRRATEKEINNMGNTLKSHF

`CC1c2c([nH]c3cccc(Cl)c23)CC2CCN(C)CC21` (racemic) gave an IC50 [1] of 700 nM.

`C[C@H]1c2c([nH]c3ccc(C(F)(F)F)cc23)C[C@H]2CCN(CCCCC3CCOCC3)C[C@@H]21` showed an IC50 [1] of 50 nM and an IC50 [2] of 4.4 nM.

`Cc1ccc2[nH]c3c(c2c1)C(C)C1CN(C)CCC1C3` (racemic) gave an IC50 [1] of 200 nM.

`CC1c2c([nH]c3ccccc23)CC2CCN(C)CC21` (racemic) gave an IC50 [1] of 1000 nM.

Work on `C[C@H]1c2c([nH]c3ccc(C(F)(F)F)cc23)C[C@H]2CCN(CCN3CCOCC3=O)C[C@@H]21` yielded an IC50 [1] of 7 nM and an IC50 [2] of 7 nM.

For `C[C@H]1c2c([nH]c3ccc(C(F)(F)F)cc23)C[C@H]2CCN(CCCC3CCOCC3)C[C@@H]21`, the IC50 [1] was 6 nM, the IC50 [2] was 0.5 nM and the CL [3] was 0.2 L/h/kg. The clearance [4] was 100 mL/min/kg, the clearance [5] was 65 mL/min/kg and the Vd [6] was 16 L/kg. It also gave a Vd [7] of 27 L/kg, a Vd [8] of 18 L/kg and an MRT [9] of 28 h. It also gave an MRT [10] of 2.5 h, an MRT [11] of 10 h and an AUC [12] of 4.078 µg·h/mL. It also gave an AUC [13] of 268 ng·h/mL, an AUC [14] of 907 ng·h/mL and an F [15] of 81%. The bioavailability [16] was 33%, the bioavailability [17] was 70% and the hepatocyte CLint [18] was under 0.3 µL/min/1e6 cells. The hepatocyte CLint [19] was 8 µL/min/1e6 cells, the hepatocyte CLint [20] was 4.9 µL/min/1e6 cells and the hepatocyte CLint [21] was under 0.3 µL/min/1e6 cells. For the same compound, the IC50 [22] was 4 nM, the Activity [23] was 50% and the Activity [24] was “Active”. The Activity [25] was “Active”, the Activity [26] was “Non-toxic” and the Activity [27] was “inactive”. For the same compound, the IC50 [28] was 4 nM, the Activity [29] was “Active” and the Activity [30] was “Non-toxic”. For the same compound, the Activity [31] was “Non-toxic” and the Activity [32] was “Non-toxic”.

In the case of `COc1ccc2[nH]c3c(c2c1)C(C)C1CN(C)CCC1C3` (racemic), the IC50 [1] is reported as 400 nM.

With `C[C@H]1c2c([nH]c3ccc(C(F)(F)F)cc23)C[C@H]2CCN(CCC3CCOCC3)C[C@@H]21` the IC50 [1] was 6 nM and the IC50 [2] was 0.9 nM.

With `C[C@H]1c2c([nH]c3ccc(C(F)(F)F)cc23)C[C@H]2CCN(CCN3CCCCC3)C[C@@H]21` the IC50 [1] was 100 nM and the IC50 [2] was 40 nM.

For `CC1c2c([nH]c3cc(C(F)(F)F)ccc23)CC2CCN(C)CC21` (racemic), the IC50 [1] was 200 nM.

Work on `CC1c2c([nH]c3c(Cl)cccc23)CC2CCN(C)CC21` (racemic) yielded an IC50 [1] of 1000 nM.

Compound `C[C@H]1c2c([nH]c3ccc(C(F)(F)F)cc23)C[C@H]2CCN(CCN3CCOCC3)C[C@@H]21` has an IC50 [1] of 20 nM and an IC50 [2] of 3 nM.

For `CC1c2c([nH]c3ccc(C(F)(F)F)cc23)CC2CCN(C)CC21` (racemic), the IC50 [1] was 100 nM.

Compound `CC1c2c([nH]c3ccc(Cl)cc23)CC2CCN(C)CC21` (racemic) has an IC50 [1] of 100 nM.

With `CC1c2c([nH]c3cc(Cl)c(Cl)cc23)CC2CCN(C)CC21` (racemic) the IC50 [1] was 50 nM.

`CC1c2c([nH]c3ccc(C(F)(F)F)cc23)CC2CCN(Cc3ccccc3)CC21` (racemic) showed an IC50 [1] of 580 nM.

`C[C@@H]1c2c([nH]c3ccc(C(F)(F)F)cc23)C[C@@H]2CCN(CCN3CCOCC3)C[C@H]21` showed an IC50 [1] of 1000 nM and an IC50 [2] of 750 nM.

For `CC1c2c([nH]c3ccc(C(F)(F)F)cc23)CC2CCN(CCc3ccccc3)CC21` (racemic), the IC50 [1] was 180 nM.

`CC1c2c([nH]c3ccc(C(F)(F)F)cc23)CC2CCN(CC3CCCCO3)CC21` (racemic) gave an IC50 [1] of 180 nM.

Compound `CC1c2c([nH]c3ccc(C(F)(F)F)cc23)CC2CCN(C(=O)C3CCOC3)CC21` (racemic) has an IC50 [1] of over 20000 nM.

In the case of `CC1c2c([nH]c3ccc(C(F)(F)F)cc23)CC2CCN(CCN3CCOCC3)CC21` (racemic), the IC50 [1] is reported as 20 nM.

Compound `CC1c2c([nH]c3ccc(C(F)(F)F)cc23)CC2CCN(C(=O)c3ccccc3)CC21` (racemic) has an IC50 [1] of over 20000 nM.
